Assay results as given in US12077503B2, “Substituted cyclic amides and their use as herbicides” (FMC CORPORATION, priority 2015, dated 2024).

How the values were obtained:
Type in all cases: in vivo
Kochia (Kochia scoparia) [1] = test: Test A preemergence; details: Bassia scoparia, pre-emergence, 240 h, preemergence, read-out: Plant response rating, Kochia; for pest or weed control at 125 g/ha: 125 g ai/ha, visual rating after approx. 10 d, 0 to 100 scale where 0 is no effect and 100 is complete control; for pest or weed control at 500 g/ha: 500 g ai/ha, 0 to 100 scale, 0 = no effect, 100 = complete control
Summary of the method: (§1)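 Preemergence directed soil spray on seeded pots, or postemergence application to plants 2–10 cm, one- to two-leaf. Solvent mixture non-phytotoxic, with surfactant. Scored ~10 d later, visually, 0–100 vs untreated.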

[2] = tested on: barnyardgrass (Echinochloa crus-galli); test: Test A preemergence; details: Echinochloa crus-galli, pre-emergence, 240 h, preemergence, read-out: Plant response rating, Barnyardgrass; for pest or weed control at 125 g/ha: 125 g ai/ha, visual rating after approx. 10 d, 0 to 100 scale where 0 is no effect and 100 is complete control; for pest or weed control at 500 g/ha: 500 g ai/ha, 0 to 100 scale, 0 = no effect, 100 = complete control
Summary of the method: as §1

[3] = tested on: giant foxtail (Setaria faberii); test: Test A preemergence; details: Setaria faberi, pre-emergence, 240 h, preemergence, read-out: Plant response rating, Foxtail, Giant; for pest or weed control at 125 g/ha: 125 g ai/ha, visual rating after approx. 10 d, 0 to 100 scale where 0 is no effect and 100 is complete control; for pest or weed control at 500 g/ha: 500 g ai/ha, 0 to 100 scale, 0 = no effect, 100 = complete control
Summary of the method: as §1

[4] = tested on: pigweed (Amaranthus retroflexus); test: Test A preemergence; details: Amaranthus retroflexus, pre-emergence, 240 h, preemergence, read-out: Plant response rating, Pigweed; for pest or weed control at 125 g/ha: 125 g ai/ha, visual rating after approx. 10 d, 0 to 100 scale where 0 is no effect and 100 is complete control; for pest or weed control at 500 g/ha: 500 g ai/ha, 0 to 100 scale, 0 = no effect, 100 = complete control
[5] = tested on: ragweed (common ragweed, Ambrosia elatior); test: Test A preemergence; details: Ambrosia artemisiifolia, pre-emergence, 240 h, preemergence, read-out: Plant response rating, Ragweed; for pest or weed control at 125 g/ha: 125 g ai/ha, visual rating after approx. 10 d, 0 to 100 scale where 0 is no effect and 100 is complete control; for pest or weed control at 500 g/ha: 500 g ai/ha, 0 to 100 scale, 0 = no effect, 100 = complete control
Summary of the method: as §1

[6] = tested on: ryegrass, Italian (Italian ryegrass, Lolium multiflorum); test: Test A preemergence; details: Lolium multiflorum, pre-emergence, 240 h, preemergence, read-out: Plant response rating, Ryegrass, Italian; for pest or weed control at 125 g/ha: 125 g ai/ha, visual rating after approx. 10 d, 0 to 100 scale where 0 is no effect and 100 is complete control; for pest or weed control at 500 g/ha: 500 g ai/ha, 0 to 100 scale, 0 = no effect, 100 = complete control
Summary of the method: as §1

Kochia (Kochia scoparia) [7] = test: Test A postemergence; details: Bassia scoparia, post-emergence, 240 h, 125 g ai/ha, postemergence; visual injury after approximately 10 d; 0 to 100 scale (0 no effect, 100 complete control); read-out: Plant response rating, Kochia
Summary of the method: as §1

[8] = tested on: blackgrass (Alopecurus myosuroides); test: Test A postemergence; details: Alopecurus myosuroides, post-emergence, 240 h, 125 g ai/ha, postemergence; visual injury after approximately 10 d; 0 to 100 scale (0 no effect, 100 complete control); read-out: Plant response rating, Blackgrass
Summary of the method: as §1

[9] = tested on: ragweed (common ragweed, Ambrosia elatior); test: Test A postemergence; details: Ambrosia artemisiifolia, post-emergence, 240 h, 125 g ai/ha, postemergence; visual injury after approximately 10 d; 0 to 100 scale (0 no effect, 100 complete control); read-out: Plant response rating, Ragweed
Summary of the method: as §1

[10] = tested on: ryegrass, Italian (Italian ryegrass, Lolium multiflorum); test: Test A postemergence; details: Lolium multiflorum, post-emergence, 240 h, 125 g ai/ha, postemergence; visual injury after approximately 10 d; 0 to 100 scale (0 no effect, 100 complete control); read-out: Plant response rating, Ryegrass, Italian
Summary of the method: as §1

[11] = tested on: wheat (Triticum aestivum); test: Test A postemergence; details: Triticum aestivum, post-emergence, 240 h, 125 g ai/ha, postemergence; visual injury after approximately 10 d; 0 to 100 scale (0 no effect, 100 complete control); read-out: Plant response rating, Wheat
Summary of the method: as §1

[12] = tested on: barnyardgrass (Echinochloa crus-galli); test: Test B flooded paddy test; details: Echinochloa crus-galli, Flood, 250 g ai/ha; scale of 0 to 100 where 0 is no effect and 100 is complete control; read-out: Barnyardgrass plant response rating
Summary of the method: (§2)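 2-leaf plants; pots flooded 3 cm over soil; cpd added to paddy water; depth held; greenhouse 13–15 d; visual rating vs controls, 0 = no effect, 100 = complete control.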

[13] = tested on: ducksalad (Heteranthera limosa); test: Test B flooded paddy test; details: Heteranthera limosa, Flood, 250 g ai/ha; scale of 0 to 100 where 0 is no effect and 100 is complete control; read-out: Ducksalad plant response rating
Summary of the method: as §2

rice (Oryra sativa) = test: Test B flooded paddy test; details: Oryza sativa, Flood, 250 g ai/ha; scale of 0 to 100 where 0 is no effect and 100 is complete control; read-out: Rice plant response rating
Summary of the method: as §2

[14] = tested on: sedge, umbrella (small-flower umbrella sedge, Cyperus difformis); test: Test B flooded paddy test; details: Cyperus difformis, Flood, 250 g ai/ha; scale of 0 to 100 where 0 is no effect and 100 is complete control; read-out: Sedge, Umbrella plant response rating
Summary of the method: as §2

| Structure (SMILES) | pest or weed control at 125 g/ha (Kochia (Kochia scoparia) [1]) [%] | pest or weed control at 500 g/ha (Kochia (Kochia scoparia) [1]) [%] | pest or weed control at 125 g/ha [2] [%] | pest or weed control at 500 g/ha [2] [%] | pest or weed control at 125 g/ha [3] [%] | pest or weed control at 500 g/ha [3] [%] | pest or weed control at 125 g/ha [4] [%] | pest or weed control at 500 g/ha [4] [%] | pest or weed control at 125 g/ha [5] [%] | pest or weed control at 500 g/ha [5] [%] | pest or weed control at 125 g/ha [6] [%] | pest or weed control at 125 g/ha (Kochia (Kochia scoparia) [7]) [%] | pest or weed control at 125 g/ha [8] [%] | pest or weed control at 125 g/ha [9] [%] | pest or weed control at 125 g/ha [10] [%] | plant injury at 125 g/ha [11] [%] | pest or weed control at 250 g/ha [12] [%] | pest or weed control at 250 g/ha [13] [%] | pest or weed control at 250 g/ha (rice (Oryra sativa)) [%] | pest or weed control at 250 g/ha [14] [%] | other results |
| --- | --- | --- | --- | --- | --- | --- | --- | --- | --- | --- | --- | --- | --- | --- | --- | --- | --- | --- | --- | --- | --- |
| O=C1NC[C@H](c2cc(F)c(F)c(F)c2)[C@H]1C(=O)Nc1ccc(F)c(F)c1F [Compound 756] | 70 | 70 | 100 | 100 | 100 | 100 | 40 | 70 | 0 | 30 | 30 | 20 | 0 | 20 | 40 | 30 | 50 | 100 | 0 | 0 | pest or weed control at 500 g/ha [6]: 70% |
| CN1C[C@H](c2cc(F)c(F)c(F)c2)[C@@H](C(=O)Nc2ccc(F)c(F)c2F)C1=O [Compound 757] | 70 | 70 | 90 | 90 | 90 | 90 | 30 | 70 | 20 | 90 | 30 | 20 | 60 | 0 | 20 | 60 | 75 | 100 | 80 | 0 | pest or weed control at 500 g/ha [6]: 60% |
| CN1C[C@H](c2cc(F)cc(F)c2)[C@@H](C(=O)Nc2ccc(F)cc2C(F)(F)F)C1=O [Compound 758] | 0 | 60 | 100 | 100 | 100 | 100 | 0 | 20 | 0 | 0 | 30 | 0 | 0 | 0 | 0 | 0 | 45 | 100 | 0 | 0 | pest or weed control at 500 g/ha [6]: 70% |
| CN1C[C@H](c2cc(F)cc(F)c2)[C@@H](C(=O)Nc2c(F)cccc2F)C1=O [Compound 759] | 0 | 20 | 90 | 100 | 70 | 100 | 0 | 0 | 0 | 0 | 0 | 0 | 0 | 0 | 0 | 0 | 0 | 0 | 0 | 0 | – |
| CCc1ccc([C@H]2CNC(=S)[C@@H]2C(=O)Nc2cccc(F)c2C)cc1 [Compound 761] | 30 | 80 | 90 | 100 | 60 | 90 | 0 | 0 | 0 | 0 | 0 | 0 | 0 | 0 | 0 | 0 | 0 | 95 | 0 | 0 | – |
| CCc1ccc([C@H]2CNC(=S)[C@@H]2C(=O)Nc2cccc(F)c2F)cc1 [Compound 762] | 0 | 50 | 100 | 100 | 70 | 100 | 0 | 0 | 0 | 50 | 20 | 0 | 0 | 0 | 0 | 0 | 0 | 98 | 0 | 0 | – |
| CCc1ccc([C@H]2CNC(=S)[C@@H]2C(=O)Nc2ccccc2SC)cc1 [Compound 763] | 30 | 30 | 80 | 80 | 0 | 50 | 0 | 30 | 0 | 0 | 0 | 0 | 0 | 0 | 0 | 0 | 0 | 60 | 0 | 0 | – |
